Measured values taken from patent US20250230462A1, “PPO2 POLYPEPTIDE HAVING TOLERANCE TO PPO INHIBITOR HERBICIDE AND APPLICATION” (priority 2022, published 2025).

Key:
[1] = system: rice seedlings edited at the OsPPO2 L422M/F442M site and wild-type strain; experiment: Tolerance of gene-edited homozygous OsPPO2 L422M/F442M rice seedlings (4-leaf stage)
[2] = system: Arabidopsis thaliana overexpressing rice OsPPO2 WT or L422M/F442M; experiment: Resistance test of Arabidopsis thaliana seeds overexpressing rice OsPPO2 on MS media containing PPO inhibitor herbicides; type: in vivo; conditions: for tolerance of L422M/F442M overexpression relative to overexpression of the wild type PPO2: FIGS. 4-6, different concentrations; for resistance of plants at higher application concentrations: 2 μM, 1 μM and 1 μM (compound A, flumioxazin, saflufenacil respectively); for tolerance/resistance of plants compared with wild-type Arabidopsis thaliana: plants overexpressing OsPPO2 L422M/F442M and OsPPO2 WT, levels similar at 50 nM, 10 nM and 40 nM (compound A, flumioxazin, saflufenacil respectively)
Method: In order to rapidly verify the tolerance of rice OsPPO2 L422M/F442M mutants to different compounds, vectors for overexpressing wild-type and mutant rice PPO2 genes were constructed by conventional methods and overexpressed in Arabidopsis thaliana.
The obtained Arabidopsis thaliana seeds overexpressing rice OsPPO2 mutants and wild types were tested for resistance on MS media (petri dishes) that contained PPO inhibitor herbicidal compounds of various concentrations.

[3] = overexpressing OsPPO2 L422M/F442M

Cc1nn(-c2cc(NS(C)(=O)=O)c(Cl)cc2Cl)c(=O)n1C(F)F [sulfentrazone]
crop safety when other PPO inhibiting herbicides were applied [1]: excellent crop safety

C#CCN(C)c1c(C#N)cnn1-c1nn2c(c1Cl)CCCC2 [pyraclonil]
crop safety when other PPO inhibiting herbicides were applied [1]: excellent crop safety

CS(=O)(=O)NC(=O)c1cc(Oc2ccc(C(F)(F)F)cc2Cl)ccc1[N+](=O)[O-] [fomesafen]
crop safety when other PPO inhibiting herbicides were applied [1]: excellent crop safety

CC(C)N(C)S(=O)(=O)NC(=O)c1cc(-n2c(=O)cc(C(F)(F)F)n(C)c2=O)c(F)cc1Cl [saflufenacil]
tolerance of L422M/F442M overexpression relative to overexpression of the wild type PPO2 [2]: stronger tolerance
resistance of plants at higher application concentrations [2, 3]: still exhibited resistance
resistance of plants at higher application concentrations ([2]; overexpressing OsPPO2 WT): no difference from the wild-type Arabidopsis thaliana controls
tolerance/resistance of plants compared with wild-type Arabidopsis thaliana [2]: certain tolerance/resistance
crop safety when other PPO inhibiting herbicides were applied [1]: excellent crop safety

Cc1nn(-c2cc(CC(Cl)C(=O)O)c(Cl)cc2F)c(=O)n1C(F)F (stereo not shown) [carfentrazone]
crop safety when other PPO inhibiting herbicides were applied [1]: excellent crop safety

COC(=O)CCNC(=O)C(C)Sc1cc(-n2c(=O)cc(C(F)(F)F)n(C)c2=O)c(F)cc1Cl (stereo not shown) [tiafenacil]
crop safety when other PPO inhibiting herbicides were applied [1]: excellent crop safety

CCOC(=O)COc1ncccc1Oc1cc(-n2c(=O)cc(C(F)(F)F)n(C)c2=O)c(F)cc1Cl [Epyrifenacil, [3-[2-chloro-4-fluoro-5-(1-methyl-6-trifluoromethyl-2,4-dioxo-1,2,3,4-tetrahydropyrimidin-3-yl)phenoxy]-2-pyridyloxy] ethyl acetate]
crop safety when other PPO inhibiting herbicides were applied [1]: excellent crop safety

CCOC(=O)C1(C)CC(c2cc(-n3c(=O)cc(C(F)(F)F)n(C)c3=O)c(F)cc2Cl)=NO1 (stereo not shown)
crop safety when other PPO inhibiting herbicides were applied [1]: excellent crop safety

C#CCN1C(=O)COc2cc(F)c(N3C(=O)C4=C(CCCC4)C3=O)cc21 [flumioxazin]
tolerance of L422M/F442M overexpression relative to overexpression of the wild type PPO2 [2]: stronger tolerance
resistance of plants at higher application concentrations [2, 3]: still exhibited resistance
resistance of plants at higher application concentrations ([2]; overexpressing OsPPO2 WT): no difference from the wild-type Arabidopsis thaliana controls
tolerance/resistance of plants compared with wild-type Arabidopsis thaliana [2]: certain tolerance/resistance
crop safety when other PPO inhibiting herbicides were applied [1]: excellent crop safety

CCOc1cc(Oc2ccc(C(F)(F)F)cc2Cl)ccc1[N+](=O)[O-] [oxyfluorfen]
crop safety when other PPO inhibiting herbicides were applied [1]: excellent crop safety

C#CCN1C(=O)C(F)(F)Oc2cc(F)c(-n3c(=O)n(C)c(=S)n(C)c3=O)cc21 [trifludimoxazin]
crop safety when other PPO inhibiting herbicides were applied [1]: excellent crop safety
